Results: patent publication US11071738B2, “Therapeutic agent for fatty liver diseases and therapeutic agent for adiposity” (Hiroshima University, priority 2017, dated 2021)

System: NASH mice (MCDD)
Experiment: NASH treatment study in mice fed a methionine-choline-deficient diet (MCDD)
Assay type: in vivo, mice (C57BL/6J)
Details: NASH mice given MCDD, 8 weeks; i.p. 2.5 mg/kg/day three times a week
Method: Next, an animal experiment was performed on NASH mice that were produced by feeding a methionine-choline-deficient diet (MCDD).

Structure (SMILES)	fat accumulation in liver tissue (microscopic observation)	hepatic fibrosis (Azan staining)
O=C(O)[C@@H](Cc1ccc2ccccc2c1)NC(=O)n1c2ccccc2c2ccccc21 [Compound H-163]	reduced	significantly inhibited
O=C(O[C@H](Cc1ccc2ccccc2c1)C(=O)O)C1c2ccccc2-c2ccccc21 [Compound H-31]	–	significantly inhibited

Same assay, conditions: NASH mice given MCDD; i.p. 2.5 mg/kg/day three times a week

Structure (SMILES)	Collagen 1a1 mRNA expression level	Collagen 1a2 mRNA expression level	SMA mRNA expression level
O=C(O)[C@@H](Cc1ccc2ccccc2c1)NC(=O)n1c2ccccc2c2ccccc21 [Compound H-163]	reduced	reduced	reduced
O=C(O[C@H](Cc1ccc2ccccc2c1)C(=O)O)C1c2ccccc2-c2ccccc21 [Compound H-31]	reduced	reduced	reduced

System: NASH model mice (HFDT)
Experiment: not given
Details: HFDT NASH mice, 8 weeks; i.p. 2.5 mg/kg/day or oral 5.0 mg/kg/day three times a week
Method: Animal experiments were performed using non-alcoholic steatohepatitis (NASH) model mice to test the compounds synthesized in Examples for the therapeutic effect on NASH.
NASH model mice (hereinafter referred to as “NASH mice”) were produced by feeding a high-fat diet containing trans fatty acids (HFDT) to individual male laboratory mice (C57BL/6J) for 8 weeks. […] In addition, a normal diet was given to individual male laboratory mice (C57BL/6J) for 8 weeks to prepare control mice.

Structure (SMILES)	blood ALT (GPT) value, index of liver inflammation	fasting blood glucose level	increase in liver weight
COC(=O)[C@@H](Cc1ccc2ccccc2c1)NC(=O)n1c2ccccc2c2ccccc21 [Compound H-144]	decreased	no significant abnormality	significantly reduced
O=C(O)[C@@H](Cc1ccc2ccccc2c1)NC(=O)n1c2ccccc2c2ccccc21 [Compound H-163]	decreased	no significant abnormality	significantly reduced

Same assay, conditions: HFDT NASH mice, 8 weeks; oral 5.0 mg/kg/day three times a week

Structure (SMILES)	fasting blood glucose level	increase in liver weight
O=C1C=CC(=O)c2c(O)cccc21 [Juglone, reference compound]	abnormal increase	significantly reduced

Same assay, conditions: HFDT NASH mice; i.p. 2.5 mg/kg/day three times a week

Structure (SMILES)	death of mice
O=C1C=CC(=O)c2c(O)cccc21 [Juglone, reference compound]	all dead within 8 weeks

Same assay, conditions: HFDT NASH mice; oral 5.0 mg/kg/day three times a week

Structure (SMILES)	death of mice
O=C1C=CC(=O)c2c(O)cccc21 [Juglone, reference compound]	not dead

Same assay, conditions: NASH mice given HFDT

Structure (SMILES)	fat accumulation in liver tissue (microscopic observation)
O=C(O)[C@@H](Cc1ccc2ccccc2c1)NC(=O)n1c2ccccc2c2ccccc21 [Compound H-163]	significantly reduced

Biological target: T1, Pin1 (Homo sapiens, UniProt Q13526)
T1 construct: endogenous in cells; host or cells: 293T cells
Experiment: Cell-based Pin1 inhibition assay with AMPK phosphorylation level as index
Design: key to Pin1 inhibition activity: +++: a higher level of AMPK phosphorylation is promoted, as compared with C1; ++: a similar level of AMPK phosphorylation is promoted, as compared with C1; +: a lower level of AMPK phosphorylation is promoted, as compared with C1; −: no or almost no promotion is found in AMPK phosphorylation
Details: 293T cells, compound at 100 μM, 10 mM 2-DG, pAMPK blot compared with C1
Method: To evaluate the inhibitory activity of each synthesized compound against the function of Pin1, a cell-based assay was performed according to the method previously developed by the inventors (Yusuke Nakatsu et al., Journal of Biological Chemistry, 2015, Vol. 290, No. 40, pp. 24255-24266), in which the phosphorylation level of AMPK (AMP-activated protein kinase), a protein whose phosphorylation is inhibited by Pin1, was examined as an index.
Briefly, 293T cells were plated on a collagen-coated 24-well plate. Forty-eight hours later, each compound synthesized in the preceding example (at 100 μM) was added to the plate, and the plate was left to stand in an incubator for 30 minutes. Subsequently, 10 mM 2-DG was added to the plate, and one hour later, each sample was collected with a buffer containing mercaptoethanol and SDS.
SDS-PAGE and blotting were performed, and blocking was then performed with 3% BSA for 1 hour, according to conventional protocols. Subsequently, a pAMPK antibody (Cell Signaling; diluted 1:2000 in Can Get Signal Solution 1, Toyobo) as a primary antibody, and an HRP-linked anti rabbit IgG (GE Healthcare; diluted 1:4000 in Can Get Signal Solution 2, Toyobo) as a secondary antibody were allowed to react at ambient temperature for 1 hour prior to detection.
The inhibitory activity against the function of Pin1 was evaluated by comparing the inhibition levels between each compound and a known Pin1 inhibitor, C1, as indicated below: […]

T1 sequence (Q13526 whole entry): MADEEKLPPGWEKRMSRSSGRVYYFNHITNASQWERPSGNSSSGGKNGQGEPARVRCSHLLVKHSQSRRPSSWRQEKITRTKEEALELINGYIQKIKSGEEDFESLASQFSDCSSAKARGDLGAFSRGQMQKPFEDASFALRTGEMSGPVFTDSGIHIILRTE

Structure (SMILES)	Pin1 inhibition activity
O=C(O)[C@@H](Cc1ccc2ccccc2c1)NC(=O)N(c1ccccc1)c1ccccc1 [Compound H-161]	++
O=C(O)[C@@H](Cc1ccc2ccccc2c1)OC(=O)N1c2ccccc2Oc2ccccc21 [Compound H-157]	++
O=C(COc1ccc2ccccc2c1)O[C@H](Cc1ccc2ccccc2c1)C(=O)O [Compound H-177]	++
O=C(Nc1ccccc1Oc1ccccc1)N[C@H](Cc1ccc2ccccc2c1)C(=O)O [Compound H-334]	+++
Cc1cc(C)cc(C(=O)O[C@H](Cc2ccc3ccccc3c2)C(=O)O)c1 [Compound H-210]	+
CC(C)(C)OC(=O)N[C@@H](Cc1ccccc1)C(=O)O[C@H](Cc1ccc2ccccc2c1)C(=O)O [Compound H-248]	+
O=C(O)[C@@H](Cc1ccc2ccccc2c1)OC(=O)n1c2ccccc2c2ccccc21 [Compound H-175]	+++
O=C(O[C@H](Cc1ccc2ccccc2c1)C(=O)O)c1ccc(C(O)c2ccccc2)cc1 (some centres unmarked) [Compound H-23]	++
O=C(O)[C@@H](Cc1ccc2ccccc2c1)NC(=O)N1c2ccccc2Oc2ccccc21 [Compound H-162]	++
O=C(O[C@H](Cc1ccc2ccccc2c1)C(=O)O)c1ccc2ccccc2c1 [Compound H-30]	++
O=C(CC1c2ccccc2-c2ccccc21)O[C@H](Cc1ccc2ccccc2c1)C(=O)O [Compound H-106]	++
O=C(O)[C@@H](Cc1ccc2ccccc2c1)NC(=O)n1c2ccccc2c2ccccc21 [Compound H-163]	++
Cc1ccc(C(=O)O[C@H](Cc2ccc3ccccc3c2)C(=O)O)cc1C [Compound H-265]	+
COC(=O)c1ccc2cc(C(=O)N[C@H](Cc3ccc4ccccc4c3)C(=O)O)ccc2c1 [Compound H-62]	+
O=C(COc1cccc2ccccc12)O[C@H](Cc1ccc2ccccc2c1)C(=O)O [Compound H-179]	+++
O=C(N[C@H](Cc1ccc2ccccc2c1)C(=O)O)C1c2ccccc2-c2ccccc21 [Compound H-109]	+++
O=C(O[C@H](Cc1ccc2ccccc2c1)C(=O)O)C1c2ccccc2-c2ccccc21 [Compound H-31]	+++
O=C(Cc1cccc2ccccc12)O[C@H](Cc1ccc2ccccc2c1)C(=O)O [Compound H-151]	++
O=C(O)[C@@H](Cc1ccc2ccccc2c1)NC(=O)N1c2ccccc2CCc2ccccc21 [Compound H-178]	+++
COc1ccc(C(=O)O[C@H](Cc2ccc3ccccc3c2)C(=O)O)cc1OC [Compound H-266]	+
O=C(O[C@H](Cc1ccc2ccccc2c1)C(=O)O)c1ccc(Cl)c(Cl)c1 [Compound H-269]	+
O=C(Cn1c2ccccc2c2ccccc21)N[C@H](Cc1ccc2ccccc2c1)C(=O)O [Compound H-536]	+

Structure (SMILES)	Pin1 inhibition activity
O=C(O[C@H](Cc1ccc2ccccc2c1)C(=O)O)c1ccc(-c2ccccc2)cc1 [Compound H-33]	+
O=C(Cc1ccc2ccccc2c1)O[C@H](Cc1ccc2ccccc2c1)C(=O)O [Compound H-149]	+
O=C(Nc1ccc(C(=O)c2ccccc2)cc1)N[C@H](Cc1ccc2ccccc2c1)C(=O)O [Compound H-341]	++
O=C(O[C@@H](Cc1ccc2ccccc2c1)C(=O)O)C1c2ccccc2-c2ccccc21 [Compound H-141]	+++
O=C(O[C@H](Cc1ccc2ccccc2c1)C(=O)O)c1ccc(Oc2ccccc2)cc1 [Compound H-123]	++
O=C(O[C@H](Cc1ccc2ccccc2c1)C(=O)O)C(c1ccccc1)c1ccccc1 [Compound H-134]	++
COC(=O)[C@@H](Cc1ccc2ccccc2c1)NC(=O)CN1c2ccccc2C2C=CC=CC21 (some centres unmarked) [Compound H-521]	+
O=C(CC1c2ccccc2-c2ccccc21)N[C@H](Cc1ccc2ccccc2c1)C(=O)O [Compound H-103]	+++
CN(C)c1ccc(C(=O)O[C@H](Cc2ccc3ccccc3c2)C(=O)O)cc1 [Compound H-212]	+
O=C(O)[C@@H](Cc1ccc2ccccc2c1)NC(=O)C1(O)c2ccccc2-c2ccccc21 [Compound H-101]	++
O=C(O[C@H](Cc1ccc2ccccc2c1)C(=O)O)c1ccc(F)c(F)c1 [Compound H-270]	+
O=C(O)[C@@H](Cc1ccc2ccccc2c1)NC(=O)N1c2ccccc2C=Cc2ccccc21 [Compound H-164]	+
O=C(O[C@H](Cc1ccc2ccccc2c1)C(=O)OCc1ccccc1)c1ccc2ccccc2c1 [Compound H-21]	− (Hydrolysis causes conversion to H-30, which is active)
O=C(N[C@H](Cc1ccc2ccccc2c1)C(=O)OCc1ccccc1)C1c2ccccc2-c2ccccc21 [Compound H-105]	− (Hydrolysis causes conversion to H-109, which is active)
COc1ccc(-c2cc(C(=O)O[C@H](Cc3ccc4ccccc4c3)C(=O)O)c(C)o2)cc1 [Compound H-32]	+
O=C(Cc1ccc2ccccc2c1)N[C@H](Cc1ccc2ccccc2c1)C(=O)O [Compound H-158]	++
O=C(O[C@H](Cc1ccc2ccccc2c1)C(=O)O)c1ccccc1Oc1ccccc1 [Compound H-132]	+
O=C(COc1ccccc1)O[C@H](Cc1ccc2ccccc2c1)C(=O)O [Compound H-176]	++
O=C(O[C@H](Cc1ccc2ccccc2c1)C(=O)O)c1cccc(Oc2ccccc2)c1 [Compound H-130]	++
O=C(O[C@H](Cc1ccc2ccccc2c1)C(=O)O)c1cc(Cl)cc(Cl)c1 [Compound H-200]	+
COc1cc(OC)cc(C(=O)O[C@H](Cc2ccc3ccccc3c2)C(=O)O)c1 [Compound H-198]	+
O=C(Cc1c[nH]c2ccccc12)O[C@H](Cc1ccc2ccccc2c1)C(=O)O [Compound H-180]	++

Same assay, conditions: cell-based assay, 293T cells, compound at 100 μM

Structure (SMILES)	Pin1 inhibition activity (in words)
O=C(N[C@H](Cc1ccc2ccccc2c1)C(=O)OCc1ccccc1)C1c2ccccc2-c2ccccc21 [Compound H-105]	no Pin1 inhibition activity
